PMC8426393, “Interactions of anti-COVID-19 drug candidates with hepatic transporters may cause liver toxicity and affect pharmacokinetics” (Scientific Reports, 2021)
pIC50: −log10 of the molar value. “Also recorded” adds a separate entry of the source. Read-outs that look alike come from different tables or passages of the source.

Legend:
[1] = biological target: T1, OATP1B3 (Homo sapiens, UniProt Q9NPD5); assay: OATP1B3-dependent pyranine uptake in overexpressing A431 cells; assay type: cell-based; conditions: for OATP1B3 Type of effect: A431 cells
T1 construct: expressed in transfected cells; host or cells: A431 cells (ATCC)
T1 sequence (Q9NPD5 1-702): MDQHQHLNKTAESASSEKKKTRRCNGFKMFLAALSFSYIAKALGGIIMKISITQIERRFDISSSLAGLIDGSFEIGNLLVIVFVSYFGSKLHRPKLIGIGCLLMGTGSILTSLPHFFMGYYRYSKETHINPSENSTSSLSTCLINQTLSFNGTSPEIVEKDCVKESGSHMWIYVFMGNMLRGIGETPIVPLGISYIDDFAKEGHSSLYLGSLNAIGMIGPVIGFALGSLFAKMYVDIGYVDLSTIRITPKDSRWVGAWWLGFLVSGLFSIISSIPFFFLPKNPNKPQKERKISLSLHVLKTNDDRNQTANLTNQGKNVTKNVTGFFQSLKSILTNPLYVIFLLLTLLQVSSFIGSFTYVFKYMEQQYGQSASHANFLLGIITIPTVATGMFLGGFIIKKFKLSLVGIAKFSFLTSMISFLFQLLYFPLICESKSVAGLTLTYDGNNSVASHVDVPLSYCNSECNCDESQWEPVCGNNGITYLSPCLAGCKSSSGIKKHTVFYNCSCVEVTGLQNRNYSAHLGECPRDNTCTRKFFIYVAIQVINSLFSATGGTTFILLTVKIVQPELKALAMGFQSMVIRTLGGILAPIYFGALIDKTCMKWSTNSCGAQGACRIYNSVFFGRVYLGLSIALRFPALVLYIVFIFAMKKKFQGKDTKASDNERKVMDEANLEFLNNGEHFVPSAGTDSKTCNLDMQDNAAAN

[2] = biological target: T2, OATP1B1 (Homo sapiens, UniProt Q9Y6L6); assay: OATP1B1-dependent pyranine uptake in overexpressing A431 cells; assay type: cell-based; conditions: for OATP1B1 Type of effect: A431 cells
T2 construct: expressed in transfected cells; host or cells: A431 cells (ATCC)
T2 sequence (Q9Y6L6 1-691): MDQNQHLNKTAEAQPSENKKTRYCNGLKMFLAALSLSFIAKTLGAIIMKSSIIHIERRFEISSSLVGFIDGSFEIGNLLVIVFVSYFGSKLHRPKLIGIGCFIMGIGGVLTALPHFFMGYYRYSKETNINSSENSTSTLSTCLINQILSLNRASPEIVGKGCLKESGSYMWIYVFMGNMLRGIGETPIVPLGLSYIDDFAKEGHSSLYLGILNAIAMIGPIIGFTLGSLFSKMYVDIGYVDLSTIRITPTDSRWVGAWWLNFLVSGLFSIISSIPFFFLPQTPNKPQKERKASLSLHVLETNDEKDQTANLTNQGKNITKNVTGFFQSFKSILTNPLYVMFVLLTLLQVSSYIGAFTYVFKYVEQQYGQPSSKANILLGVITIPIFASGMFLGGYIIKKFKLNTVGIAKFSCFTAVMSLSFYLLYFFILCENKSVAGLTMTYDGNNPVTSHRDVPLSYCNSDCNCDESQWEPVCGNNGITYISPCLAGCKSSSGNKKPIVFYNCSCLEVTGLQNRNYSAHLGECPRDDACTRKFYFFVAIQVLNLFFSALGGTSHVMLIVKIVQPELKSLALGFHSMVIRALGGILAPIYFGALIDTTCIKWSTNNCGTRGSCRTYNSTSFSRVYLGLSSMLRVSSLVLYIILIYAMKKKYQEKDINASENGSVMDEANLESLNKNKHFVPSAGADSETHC

[3] = biological target: T3, OCT1/SLC22A1 (Homo sapiens, UniProt O15245); assay: OCT1-dependent metformin uptake in OCT1-overexpressing HEK-293 cells; assay type: cell-based; conditions: for OCT1/SLC22A1 Type of effect: metformin 10 µM, 5 min, 37 °C, HEK-293 cells
T3 construct: expressed in transfected cells; host or cells: HEK-293 cells, lentiviral transduction
T3 sequence (O15245 1-554): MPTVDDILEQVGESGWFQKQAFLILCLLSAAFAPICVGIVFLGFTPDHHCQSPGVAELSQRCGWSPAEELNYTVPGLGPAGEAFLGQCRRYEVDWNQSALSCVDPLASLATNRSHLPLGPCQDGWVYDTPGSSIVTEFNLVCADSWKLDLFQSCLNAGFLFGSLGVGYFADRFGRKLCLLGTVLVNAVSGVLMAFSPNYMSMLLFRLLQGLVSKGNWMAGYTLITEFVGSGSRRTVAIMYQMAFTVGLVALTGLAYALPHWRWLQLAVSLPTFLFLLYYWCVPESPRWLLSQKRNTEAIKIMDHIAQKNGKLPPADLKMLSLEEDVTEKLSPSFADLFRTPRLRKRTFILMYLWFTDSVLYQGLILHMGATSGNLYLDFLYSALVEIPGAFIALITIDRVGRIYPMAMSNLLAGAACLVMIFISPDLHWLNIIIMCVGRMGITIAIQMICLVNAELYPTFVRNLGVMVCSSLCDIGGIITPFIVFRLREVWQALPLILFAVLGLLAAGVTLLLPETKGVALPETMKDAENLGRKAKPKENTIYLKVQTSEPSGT

[4] = system: ABCB1/Pgp; parameters: method as in Telbisz et al., 2021; conditions: vesicular transporter assay, measured previously; ref Telbisz et al., 2021; cited from earlier work
[5] = cited from earlier work
[6] = system: ABCG2/BCRP; parameters: method as in Telbisz et al., 2021; conditions: vesicular transporter assay, measured previously; ref Telbisz et al., 2021; cited from earlier work

| SMILES | OATP1B3 Type of effect ([1]; pyranine 20 µM, 30 min, 37 °C) | OATP1B1 Type of effect ([2]; pyranine 10 µM, 15 min, 37 °C) | OCT1/SLC22A1 Type of effect [3] | OATP1B3 R value ([1]; DDI estimate, cut off 1.1, 165 µg/kg IVE dose, peak plasma 46 ng/ml) | pIC50 ([1]; approximate IC50, pyranine 20 µM, 30 min, 37 °C) | ABCB1/Pgp Type of effect [4] | pIC50 [4] | pIC50 ([2]; approximate IC50, pyranine 10 µM, 15 min, 37 °C) | peak plasma concentration ([5]; 165 µg/kg IVE dose, ref FDA guideline for stromectol) | ABCG2/BCRP type of effect [6] | pIC50 [6] | pIC50 [1] | pIC50 [2] | peak plasma concentrations in vivo ([5]; Kaletra 400 mg lopinavir and 100 mg ritonavir in combination) | pIC50 [3] | T1/2 ([5]; clearance from the human body) | Cmax ([5]; intravenous 100 mg, healthy adults, ref FDA label 214787Orig1s000) | concentration of strong inhibitory effect on OCT1 ([3]; metformin uptake) |
| --- | --- | --- | --- | --- | --- | --- | --- | --- | --- | --- | --- | --- | --- | --- | --- | --- | --- | --- |
| NC(=O)c1nc(F)c[nH]c1=O [FAV, favipiravir] | did not modify OATP functionality | did not modify OATP functionality | no significant inhibitory action |  |  |  |  |  |  |  |  |  |  |  |  |  |  |  |
| CCC(C)C1OC2(CCC1C)CC1CC(CC=C(C)C(OC3CC(OC)C(OC4CC(OC)C(O)C(C)O4)C(C)O3)C(C)C=CC=C3COC4C(O)C(C)=CC(C(=O)O1)C34O)O2 (stereo not drawn) [IVE, ivermectin] | inh | inh | no significant inhibitory action; also recorded: no effect | 1.07 | 5.85 | inh | 6.52 | ≤ 4.70 | 46 ng/mL | inh | 5.96 |  |  |  |  |  |  |  |
| Cc1cccc(C)c1OCC(=O)N[C@@H](Cc1ccccc1)[C@@H](O)C[C@H](Cc1ccccc1)NC(=O)[C@H](C(C)C)N1CCCNC1=O [LOP, lopinavir] |  |  | less inhibitory and inh |  |  | inh | 6.22 |  |  | inh | 5.38 | 5.59 | 5.96 | 11 to 20 µM | < 4.30 |  |  |  |
| CCC(CC)COC(=O)[C@H](C)N[P@](=O)(OC[C@H]1O[C@@](C#N)(c2ccc3c(N)ncnn23)[C@H](O)[C@@H]1O)Oc1ccccc1 [REM, remdesivir] | inh | inh | strong inhibitory effect and inh |  |  | inh | < 4.70 |  |  | inh | < 4.30 | 5.37 | 5.54 |  | 5.21 | 1.15 h | 3.7 µM | below 10 µM |
